Source: US5985885A, “Quinazoline-4-amino-2-(piperidine-1-yl-4-substituted) derivatives having antihypertensive activity, a method for their preparation and their pharmaceutical use” (priority 1996, dated 1999)
pIC50: −log10 of the molar value. Read-outs that look alike come from different tables or passages of the source.

How the values were obtained:
[1] = target: T1, alpha1B adrenergic receptor (rat liver) (Rattus norvegicus, UniProt P15823); assay: [3H]-prazosin binding in rat liver
T1 sequence (P15823 1-515): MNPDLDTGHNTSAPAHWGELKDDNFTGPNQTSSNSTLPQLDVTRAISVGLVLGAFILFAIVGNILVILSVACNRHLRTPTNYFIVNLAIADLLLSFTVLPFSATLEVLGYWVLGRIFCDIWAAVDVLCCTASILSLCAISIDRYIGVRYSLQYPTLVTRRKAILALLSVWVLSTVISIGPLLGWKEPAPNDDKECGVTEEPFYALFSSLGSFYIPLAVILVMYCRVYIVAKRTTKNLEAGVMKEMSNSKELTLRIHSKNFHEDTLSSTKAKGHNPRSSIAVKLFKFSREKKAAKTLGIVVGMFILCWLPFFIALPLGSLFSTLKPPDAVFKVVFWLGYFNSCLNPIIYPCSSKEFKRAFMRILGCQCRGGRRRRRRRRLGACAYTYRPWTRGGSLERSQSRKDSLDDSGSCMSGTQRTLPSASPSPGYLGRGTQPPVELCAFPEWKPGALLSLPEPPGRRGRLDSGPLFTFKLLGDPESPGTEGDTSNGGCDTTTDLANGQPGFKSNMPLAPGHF

[2] = tested on: spontaneously hypertensive (SHR) rat; assay: Anti-hypertensive activity in the spontaneously hypertensive (SHR) rat (oral); type: in vivo; details: for ED20: Rattus norvegicus, 2 h, 0-120 min, NC: not calculable, read-out: Systolic pressure ED20 (0-120 min)
Source text: Animals having a mean basal systolic pressure of not less than 180 mmHg were used.

[3] = target: T2, alpha1A adrenergic receptor (rat GSM) (Rattus norvegicus, UniProt P43140); assay: [3H]-prazosin binding in rat submaxillary glands (GSM); details: alpha1A subtype, pH 7.4, 45 min, 25° C., read-out: Inhibition of the binding of [3H]-prazosin IC50
T2 sequence (P43140 1-466): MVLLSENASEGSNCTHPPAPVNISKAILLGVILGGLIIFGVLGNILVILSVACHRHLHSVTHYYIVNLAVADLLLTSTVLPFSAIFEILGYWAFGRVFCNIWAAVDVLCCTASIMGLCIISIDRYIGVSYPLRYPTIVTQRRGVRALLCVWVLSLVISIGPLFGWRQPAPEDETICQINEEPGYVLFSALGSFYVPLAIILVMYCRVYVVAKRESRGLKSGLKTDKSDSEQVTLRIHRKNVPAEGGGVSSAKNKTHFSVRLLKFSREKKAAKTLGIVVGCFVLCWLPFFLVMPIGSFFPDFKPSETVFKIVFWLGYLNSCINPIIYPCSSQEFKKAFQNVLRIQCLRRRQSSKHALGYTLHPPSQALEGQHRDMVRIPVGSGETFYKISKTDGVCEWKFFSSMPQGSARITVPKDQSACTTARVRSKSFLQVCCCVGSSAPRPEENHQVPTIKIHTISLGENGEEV

[4] = target: T3, 5-HT2 receptors (isolated rabbit aorta) (Oryctolagus cuniculus, UniProt G1SYA7); assay: Antagonism of serotonin-induced contraction of isolated rabbit aorta
T3 construct: Four rings formed from rabbit aorta were joined together to form a chain; from tissue; host or cells: isolated rabbit aorta rings
T3 sequence (G1SYA7 1-469): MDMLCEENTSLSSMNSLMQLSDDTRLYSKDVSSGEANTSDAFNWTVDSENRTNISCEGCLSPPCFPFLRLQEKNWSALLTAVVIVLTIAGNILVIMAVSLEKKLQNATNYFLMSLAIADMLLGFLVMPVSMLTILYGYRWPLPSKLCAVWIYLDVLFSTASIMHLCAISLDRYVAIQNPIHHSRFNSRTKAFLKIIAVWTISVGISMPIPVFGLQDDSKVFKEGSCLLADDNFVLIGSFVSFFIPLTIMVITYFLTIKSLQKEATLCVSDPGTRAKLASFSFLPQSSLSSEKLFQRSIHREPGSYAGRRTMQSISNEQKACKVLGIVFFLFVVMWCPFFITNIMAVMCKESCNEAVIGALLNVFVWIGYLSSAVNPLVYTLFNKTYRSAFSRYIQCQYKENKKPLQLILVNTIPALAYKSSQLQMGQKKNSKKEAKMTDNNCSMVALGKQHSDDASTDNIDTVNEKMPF
Protocol: The antagonist activity of some of the compounds of the invention on the contractile activity of seratonin on isolated rabbit aorta, effected principally by way of the 5-HT2 receptors, is reported here by way of example. The method of Feniuk et al [Br. J. Pharmacol. (1985), 86, 697-704] was used, with slight modifications. Four rings formed from rabbit aorta were joined together to form a chain; the preparation was placed in an isolated organ bath in the presence of Krebs at 37° C. and attached to an isometric transducer, a tension of 2 g being applied and oxygenation was carried out continuously with O2 --CO2 (95-5 v/v). A seratonin concentration(0.3 μM) was used that was capable of causing sub-maximal contraction of the preparation. […] The results obtained in this way are given in Table 4 below which, for several of the compounds of the invention gives IC50 values calculated by the regression method on a set of at least 2 experiments at 5 different concentrations for each of the compounds examined, these being compared with values obtained for several reference compounds.

[5] = tested on: anaesthetised normotensive rat; assay: Hypotensive activity in the anaesthetised normotensive rat (IV); type: in vivo; details: Rattus norvegicus, IV bolus, read-out: Reduction in mean arterial pressure ED30
Protocol: In order to evaluate the in vivo activity, some of the compounds of the invention were administered (IV) in bolus form to the normotensive rat anaesthetised with urethane plus ketamine. The compounds were administered in at least three doses in experiments performed in duplicate so as to enable the calculation of ED30 values, that is, the dose in mg/kg that reduces the mean basal arterial pressure by 30%. The compounds of the invention, and several reference standards, were dissolved in dilute hydrochloric acid at a physiologically acceptable pH, and physiological solution was administered in a volume of 3 ml/kg. Evaluations were made at two time periods, that is, the intervals 0-30 min and 30-60 min after administration.

[6] = target: alpha1A + alpha1C adrenergic receptor (human prostate); assay: [3H]-prazosin binding in human prostate; details: alpha1A + alpha1C subtype, pH 7.5, 30 min, 25° C., read-out: Inhibition of the binding of [3H]-prazosin IC50
[7] = isolated rabbit aorta, 37° C., compound 10 min before agonist, limits (p < 0.05)
[8] = read-out: Inhibition of the binding of [3H]-prazosin IC50, rat liver, alpha1B subtype
[9] = read-out: Inhibitory effect (IC50) on the contraction caused by 0.3 μM serotonin, isolated rabbit aorta, 37° C., compound 10 min before agonist, limits (p < 0.05)

Structure (SMILES)	pIC50 [1]	Cardiac frequency, max effect at 3 mg/kg [2]	pIC50 [3]	pIC50 [4, 7]	pIC50 [6]	pIC50 [1, 8]	pIC50 [4, 9]	pIC50 ([4]; rabbit aorta, 0.3 μM serotonin, conversion of 3.1 μg/ml, read-out: IC50, 5-HT2 antagonist activity)	times less than ketanserine (IC50) ([4]; rabbit aorta, versus ketanserine IC50 0.09 μg/ml)	Systolic pressure, max effect at 3 mg/kg [2] [% vs basal]	ED30 ([5]; 0.5 h, interval 0-30 min) [mg/kg]	ED30 ([5]; 1 h, interval 30-60 min) [mg/kg]	ED20 [2] [mg/kg]	anti-hypertensive action (in words) [2]
COc1cc2nc(N3CCC(c4ccccc4OC)CC3)nc(N)c2cc1OC [Compound 2]	8.11	+2.1 % vs basal	7.73	4.43	8.11					-6.4	0.5	0.55		
CCOc1ccccc1C1CCN(c2nc(N)c3cc(OC)c(OC)cc3n2)CC1 [Compound 3]			7.97		7.97	7.85	4.13				0.32	0.35		

Compounds with a higher pIC50 [3], results first:

pIC50 [1]	Cardiac frequency, max effect at 3 mg/kg [2]	pIC50 [3]	pIC50 [4, 7]	pIC50 [6]	pIC50 [1, 8]	pIC50 [4, 9]	pIC50 ([4]; rabbit aorta, 0.3 μM serotonin, conversion of 3.1 μg/ml, read-out: IC50, 5-HT2 antagonist activity)	times less than ketanserine (IC50) ([4]; rabbit aorta, versus ketanserine IC50 0.09 μg/ml)	Structure (SMILES)	Systolic pressure, max effect at 3 mg/kg [2] [% vs basal]	ED30 ([5]; 0.5 h, interval 0-30 min) [mg/kg]	ED30 ([5]; 1 h, interval 30-60 min) [mg/kg]	ED20 [2] [mg/kg]	anti-hypertensive action (in words) [2]
7.89	-0.8 % vs basal	8.21	4.78	8.70					COc1cc2nc(N3CCC(c4ccccc4)CC3)nc(N)c2cc1OC [Compound 1]	-7.5	0.19	0.31		
	+0.6 % vs basal	8.51		8.42	8.77	4.49			COc1cc2nc(N3CCC(c4ccco4)CC3)nc(N)c2cc1OC [Compound 4]	-15.5	0.08	0.1	13.1	
8.68	-0.2 % vs basal	8.46	5.08	8.77			5.12	approximately 30 times	COc1cc2nc(N3CCC(c4ccc(C)o4)CC3)nc(N)c2cc1OC [Compound 5]	-22.1	0.03	0.03	2	about as powerful as prazosin
